From ChEMBL document CHEMBL2331144, “Synthesis and anticancer activity of analogues of phenstatin, with a phenothiazine A-ring, as a new class of microtubule-targeting agents” (Bioorg Med Chem Lett, 2013)

Legend:
[1] = test system: M14; experiment: Growth inhibition of human M14 cells after 48 hrs by sulforhodamine B assay; format: functional; conditions: M14, 48 h
[2] = test system: NCI-H522; experiment: Growth inhibition of human NCI-H522 cells after 48 hrs by sulforhodamine B assay; format: functional; conditions: NCI-H522, 48 h
[3] = Growth inhibition of human Hs 578T cells after 48 hrs by sulforhodamine B assay; format: functional
[4] = test system: Malme-3M; experiment: Growth inhibition of human MALME-3M cells after 48 hrs by sulforhodamine B assay; format: functional
[5] = test system: RXF 393; experiment: Growth inhibition of human RXF393 cells after 48 hrs by sulforhodamine B assay; format: functional; conditions: RXF 393, 48 h
[6] = test system: BT-549; experiment: Growth inhibition of human BT549 cells after 48 hrs by sulforhodamine B assay; format: functional; conditions: BT-549, 48 h
[7] = species: Ovis aries; experiment: Inhibition of sheep brain tubulin polymerization at 100 uM using DAPI by fluorimetry
[8] = test system: CCRF-CEM; experiment: Growth inhibition of human CCRF-CEM cells after 48 hrs by sulforhodamine B assay; format: functional
[9] = test system: A498; experiment: Growth inhibition of human A498 cells after 48 hrs by sulforhodamine B assay; format: functional; conditions: A498, 48 h
[10] = test system: HOP-92; experiment: Growth inhibition of human HOP92 cells after 48 hrs by sulforhodamine B assay; format: functional; conditions: HOP-92, 48 h
[11] = test system: OVCAR-8; experiment: Growth inhibition of human OVCAR8 cells after 48 hrs by sulforhodamine B assay; format: functional; conditions: OVCAR-8, 48 h
[12] = test system: A549; experiment: Growth inhibition of human A549/ATCC cells after 48 hrs by sulforhodamine B assay; format: functional; conditions: A549, 48 h
[13] = test system: HCT-116; experiment: Growth inhibition of human HCT116 cells after 48 hrs by sulforhodamine B assay; format: functional; conditions: HCT-116, 48 h
[14] = test system: K562; experiment: Growth inhibition of human K562 cells after 48 hrs by sulforhodamine B assay; format: functional; conditions: K562, 48 h
[15] = test system: SF-268; experiment: Growth inhibition of human SF268 cells after 48 hrs by sulforhodamine B assay; format: functional; conditions: SF-268, 48 h
[16] = test system: HOP-62; experiment: Growth inhibition of human HOP62 cells after 48 hrs by sulforhodamine B assay; format: functional; conditions: HOP-62, 48 h
[17] = test system: SK-OV-3; experiment: Growth inhibition of human SKOV3 cells after 48 hrs by sulforhodamine B assay; format: functional; conditions: SK-OV-3, 48 h
[18] = test system: IGROV-1; experiment: Growth inhibition of human IGROV1 cells after 48 hrs by sulforhodamine B assay; format: functional; conditions: IGROV-1, 48 h
[19] = test system: MCF7; experiment: Growth inhibition of human MCF7 cells after 48 hrs by sulforhodamine B assay; format: functional; conditions: MCF7, 48 h
[20] = test system: DU-145; experiment: Growth inhibition of human DU145 cells after 48 hrs by sulforhodamine B assay; format: functional; conditions: DU-145, 48 h
[21] = test system: SF-295; experiment: Growth inhibition of human SF295 cells after 48 hrs by sulforhodamine B assay; format: functional; conditions: SF-295, 48 h
[22] = Growth inhibition of human EKVX cells after 48 hrs by sulforhodamine B assay; format: functional
[23] = test system: OVCAR-3; experiment: Growth inhibition of human OVCAR3 cells after 48 hrs by sulforhodamine B assay; format: functional; conditions: OVCAR-3, 48 h
[24] = test system: KM12; experiment: Growth inhibition of human KM12 cells after 48 hrs by sulforhodamine B assay; format: functional; conditions: KM12, 48 h
[25] = test system: UACC-257; experiment: Growth inhibition of human UACC257 cells after 48 hrs by sulforhodamine B assay; format: functional; conditions: UACC-257, 48 h
[26] = test system: LOX IMVI; experiment: Growth inhibition of human LOXIMVI cells after 48 hrs by sulforhodamine B assay; format: functional
[27] = test system: NCI-H23; experiment: Growth inhibition of human NCI-H23 cells after 48 hrs by sulforhodamine B assay; format: functional; conditions: NCI-H23, 48 h
[28] = test system: HT-29; experiment: Growth inhibition of human HT-29 cells after 48 hrs by sulforhodamine B assay; format: functional; conditions: HT-29, 48 h
[29] = test system: SN12C; experiment: Growth inhibition of human SN12C cells after 48 hrs by sulforhodamine B assay; format: functional
[30] = test system: HL-60(TB); experiment: Growth inhibition of human HL-60(TB) cells after 48 hrs by sulforhodamine B assay; format: functional; conditions: HL-60, 48 h
[31] = test system: NCI-H460; experiment: Growth inhibition of human NCI-H460 cells after 48 hrs by sulforhodamine B assay; format: functional; conditions: NCI-H460, 48 h
[32] = Growth inhibition of human NCI-ADR-RES cells after 48 hrs by sulforhodamine B assay; format: functional
[33] = test system: OVCAR-5; experiment: Growth inhibition of human OVCAR5 cells after 48 hrs by sulforhodamine B assay; format: functional; conditions: OVCAR-5, 48 h
[34] = test system: SF-539; experiment: Growth inhibition of human SF539 cells after 48 hrs by sulforhodamine B assay; format: functional; conditions: SF-539, 48 h
[35] = Growth inhibition of human HCC2998 cells after 48 hrs by sulforhodamine B assay; format: functional; conditions: HCC 2998, 48 h
[36] = test system: UO-31; experiment: Growth inhibition of human UO31 cells after 48 hrs by sulforhodamine B assay; format: functional; conditions: UO-31, 48 h
[37] = test system: SK-MEL-28; experiment: Growth inhibition of human SK-MEL-28 cells after 48 hrs by sulforhodamine B assay; format: functional; conditions: SK-MEL-28, 48 h
[38] = test system: SR; experiment: Growth inhibition of human SR cells after 48 hrs by sulforhodamine B assay; format: functional
[39] = test system: ACHN; experiment: Growth inhibition of human ACHN cells after 48 hrs by sulforhodamine B assay; format: functional
[40] = test system: T47D; experiment: Growth inhibition of human T47D cells after 48 hrs by sulforhodamine B assay; format: functional
[41] = test system: OVCAR-4; experiment: Growth inhibition of human OVCAR4 cells after 48 hrs by sulforhodamine B assay; format: functional; conditions: OVCAR-4, 48 h
[42] = test system: COLO 205; experiment: Growth inhibition of human COLO205 cells after 48 hrs by sulforhodamine B assay; format: functional; conditions: COLO 205, 48 h
[43] = test system: RPMI-8226; experiment: Growth inhibition of human RPMI8226 cells after 48 hrs by sulforhodamine B assay; format: functional; conditions: RPMI-8226, 48 h
[44] = test system: SNB-75; experiment: Growth inhibition of human SNB75 cells after 48 hrs by sulforhodamine B assay; format: functional; conditions: SNB-75, 48 h
[45] = test system: MDA-MB-231; experiment: Growth inhibition of human MDA-MB-231 cells after 48 hrs by sulforhodamine B assay; format: functional; conditions: MDA-MB-231, 48 h
[46] = test system: PC-3; experiment: Growth inhibition of human PC3 cells after 48 hrs by sulforhodamine B assay; format: functional; conditions: PC-3, 48 h
[47] = test system: HCT-15; experiment: Growth inhibition of human HCT15 cells after 48 hrs by sulforhodamine B assay; format: functional; conditions: HCT-15, 48 h
[48] = test system: TK-10; experiment: Growth inhibition of human TK10 cells after 48 hrs by sulforhodamine B assay; format: functional; conditions: TK-10, 48 h
[49] = test system: UACC-62; experiment: Growth inhibition of human UACC62 cells after 48 hrs by sulforhodamine B assay; format: functional; conditions: UACC-62, 48 h
[50] = test system: 786-0; experiment: Growth inhibition of human 786-0 cells after 48 hrs by sulforhodamine B assay; format: functional; conditions: 786-0, 48 h
[51] = test system: MOLT-4; experiment: Growth inhibition of human MOLT4 cells after 48 hrs by sulforhodamine B assay; format: functional; conditions: MOLT-4, 48 h
[52] = test system: SK-MEL-5; experiment: Growth inhibition of human SK-MEL-5 cells after 48 hrs by sulforhodamine B assay; format: functional; conditions: SK-MEL-5, 48 h
[53] = test system: SW-620; experiment: Growth inhibition of human SW620 cells after 48 hrs by sulforhodamine B assay; format: functional; conditions: SW-620, 48 h
[54] = test system: CAKI-1; experiment: Growth inhibition of human CAKI-1 cells after 48 hrs by sulforhodamine B assay; format: functional; conditions: CAKI-1, 48 h
[55] = test system: MDA-MB-435; experiment: Growth inhibition of human MDA-MB-435 cells after 48 hrs by sulforhodamine B assay; format: functional; conditions: MDA-MB-435, 48 h

`CCOC(=O)c1cc(C(=O)N2c3ccccc3Sc3ccccc32)n2c(C)cccc12` showed a GI50 [1] of 2.6 µM, a GI50 [2] of 1.82 µM and a GI50 [3] of 1.5 µM. It also gave a GI50 [4] of 6.13 µM, a GI50 [5] of 2.77 µM and a GI50 [6] of 2.93 µM. For the same compound, the inhibition [7] was 31%, the GI50 [8] was 2.39 µM and the GI50 [9] was 1.91 µM. It also gave a GI50 [10] of 2.69 µM, a GI50 [11] of 3.76 µM and a GI50 [12] of 3.81 µM. It also gave a GI50 [13] of 2.89 µM, a GI50 [14] of 3.78 µM and a GI50 [15] of 7.11 µM. For the same compound, the GI50 [16] was 6.14 µM, the GI50 [17] was 4.04 µM and the GI50 [18] was 5.78 µM. The GI50 [19] was 3.03 µM, the GI50 [20] was 8.22 µM and the GI50 [21] was 4.89 µM. It also gave a GI50 [22] of 5.84 µM, a GI50 [23] of 4.24 µM and a GI50 [24] of 2.94 µM. The GI50 [25] was 3.24 µM, the GI50 [26] was 4.57 µM and the GI50 [27] was 3.55 µM. For the same compound, the GI50 [28] was 2.95 µM, the GI50 [29] was 5.53 µM and the GI50 [30] was 3.08 µM. For the same compound, the GI50 [31] was 3.75 µM, the GI50 [32] was 2.17 µM and the GI50 [33] was 65.8 µM. It also gave a GI50 [34] of 4.13 µM, a GI50 [35] of 6.71 µM and a GI50 [36] of 3.85 µM. For the same compound, the GI50 [37] was 3.5 µM, the GI50 [38] was 2.42 µM and the GI50 [39] was 4.85 µM. It also gave a GI50 [40] of 4.16 µM, a GI50 [41] of 7.93 µM and a GI50 [42] of 3.13 µM. It also gave a GI50 [43] of 2.16 µM, a GI50 [44] of 1.88 µM and a GI50 [45] of 6.04 µM. It also gave a GI50 [46] of 2.2 µM, a GI50 [47] of 4.52 µM and a GI50 [48] of 6.73 µM. It also gave a GI50 [49] of 2.55 µM, a GI50 [50] of 4.17 µM and a GI50 [51] of 3.72 µM. The GI50 [52] was 2.55 µM, the GI50 [53] was 3.14 µM and the GI50 [54] was 6.23 µM. For the same compound, the GI50 [55] was 0.672 µM.
